Test results reported in patent publication US6998395B2, “Administration of estradiol metabolites for the treatment or prevention of obesity, metabolic syndrome, diabetes, and vascular and renal disorders” (University of Pittsburg,, priority 2001, dated 2006).
“Also recorded” adds a separate entry of the source.

Test system: male obese ZSF1 rats
Experiment: Treatment of male obese ZSF1 rats for 26 weeks with 2-hydroxyestradiol: body weight, food intake, metabolic cage and plasma parameters
Type: in vivo, rat
Description: Twenty 12-week-old male obese ZSF1 rats (Genetic Models Inc., Indianapolis, Ind.) were used. Obese ZSF1 rats were developed by crossing lean female Zucker Diabetic Fatty rats (ZDF +/fa) and lean male Spontaneously Hypertensive Heart Failure rats (SHHF/Mcc-fa^cp, +/cp). As recently described by Tofovic, S. P., et al., Renal Failure 22: 387 (2000) the disclosure of which is incorporated herein by reference, compared with several different rat strains including Wistar-Kyoto normotensive rats, spontaneously hypertensive rats and obese SHHF/Mcc-fa^cp rats, obese ZSF1 rats have the metabolic syndrome (i.e., hypertension, diabetes and hyperlipidemia), left ventricular dysfunction, and develop nephropathy as characterized by massive proteinuria, abnormal renal histopathology (glomerulosclerosis and severe tubulointerstitial and vascular changes) and reduced glomerular filtration rate. Thus, this rat strain develops obesity, the metabolic syndrome and the end-organ sequelae associated with the metabolic syndrome.
At baseline, animals were placed in metabolic cages and food intake, water intake, urine output and urinary excretion of proteins (bicinchoninic acid method) and glucose (Infinity™ Glucose Reagent, Sigma Diagnostics, St Louis, Mo.) were determined. Next, osmotic mini pumps infusing either vehicle (polyethylene glycol 400, 2.5 ul/hour) or 2-hydroxyestradiol (10 ug/kg/hour) were implanted subcutaneously (random assignment). Minipumps were replaced every 33 days. Metabolic cage studies were repeated 12 and 24 weeks after initiation of treatments. After 9 and 25 weeks of treatment, animals were fasted overnight, and blood samples (tail vein) for measurement of cholesterol were taken. Plasma samples were analyzed in duplicates for cholesterol levels (Sigma Diagnostics, St. Louis, Mo.). After 26 weeks of treatment, animals were fasted overnight, an oral glucose tolerance test was conducted and total glycated hemoglobin levels were determined (Sigma Diagnostics). Plasma glucose levels were measured with the Precision Q.I.D. Blood Glucose Test Strips kit (Medisense, Inc., Bedford, Mass.).
All values refer to means±SEM for 9 to 10 animals in each group. Statistical significance was calculated using either an unpaired Student's t-test or a 2-factor analysis of variance (repeated measures) followed by a Fisher's Least Significance Difference test if appropriate. The criterion of significance was p<0.05.

[1] = 10 ug/kg/hour s.c., 12 weeks of treatment
[2] = 10 ug/kg/hour s.c., 24 weeks of treatment
[3] = Table 1, after approximately 6 months of treatment

SMILES: C[C@]12CC[C@@H]3c4cc(O)c(O)cc4CC[C@H]3[C@@H]1CC[C@@H]2O [2-hydroxyestradiol, estra-1,3,5 (10)-triene-2,3,1 7-triol (17β)]
- Body weight (10 ug/kg/hour s.c. osmotic minipump, 12 weeks of treatment, mean±SEM): 545±13 grams
- Body weight (10 ug/kg/hour s.c. osmotic minipump, 26 weeks of treatment, mean±SEM): 571±13 grams
- Hypercholesterolemia (plasma cholesterol) (10 ug/kg/hour s.c., 9 weeks of treatment, fasted overnight): 151±9 mg cholesterol/100 ml
- Food intake [1]: 26.4±1.3 grams/day
- Glucosuria [1]: 0.2±0.2 grams glucose/day
- Polydipsia [1]: 40.1±4.0 mls of water consumed/day
- Polyuria [1]: 23.6±2.4 mls of urine/day
- Food intake [2]: 36.6±0.9 grams/day
- Glucosuria [2]: 1.7±0.5 grams glucose/day
- Polydipsia [2]: 67.4±4.5 mls of water consumed
- Polyuria [2]: 45.6±3.8 mls of urine/day
- Hypercholesterolemia (plasma cholesterol) (10 ug/kg/hour s.c., 25 weeks of treatment, fasted overnight): 247±28 mg cholesterol/100 ml
- Glycated hemoglobin (10 ug/kg/hour s.c., 26 weeks into the study): 3.8±0.7%
- Oral glucose tolerance test: plasma glucose 2 hours after an oral dose of 2 grams of glucose per kg body weight (10 ug/kg/hour s.c., 26 weeks of treatment, fasted overnight): 265±13 mg/100 ml
- Progression of proteinuria (urinary protein excretion, FIG. 1) (10 ug/kg/hour s.c., baseline, 12 and 24 weeks, versus vehicle): significant (p<0.001) effect of time and treatment; also recorded: attenuated the progression of proteinuria
- Food intake [3]: 36.6 ± 0.9 grams
- Glycated hemoglobin [3]: 3.8 ± 0.7%
- Plasma Cholesterol [3]: 247 ± 28 mg/100 ml
- Plasma Glucose 2 Hours After Oral Glucose Load of 2 g/kg [3]: 265 ± 13 mg/100 ml
- Urinary Glucose Excretion [3]: 1.7 ± 0.5 grams/day
- Urinary Protein Excretion [3]: 333 ± 21 mg/day
- Urine Volume [3]: 45.6 ± 3.8 mL/day
- Water Intake [3]: 67.4 ± 4.5 mL/day
- Body weight (Table 1, after approximately 6 months of treatment, mean ± SEM): 571 ± 11 grams
